{
  "source": "paper PMC12436592",
  "about": "(Nature Communications, 2025)",
  "key": {"mP2X7R": {"biological_target": "T1, mP2X7R (Mus musculus, UniProt Q9Z1M0)", "T1 construct": "expressed in transfected cells", "T1 sequence (Q9Z1M0 1-595)": "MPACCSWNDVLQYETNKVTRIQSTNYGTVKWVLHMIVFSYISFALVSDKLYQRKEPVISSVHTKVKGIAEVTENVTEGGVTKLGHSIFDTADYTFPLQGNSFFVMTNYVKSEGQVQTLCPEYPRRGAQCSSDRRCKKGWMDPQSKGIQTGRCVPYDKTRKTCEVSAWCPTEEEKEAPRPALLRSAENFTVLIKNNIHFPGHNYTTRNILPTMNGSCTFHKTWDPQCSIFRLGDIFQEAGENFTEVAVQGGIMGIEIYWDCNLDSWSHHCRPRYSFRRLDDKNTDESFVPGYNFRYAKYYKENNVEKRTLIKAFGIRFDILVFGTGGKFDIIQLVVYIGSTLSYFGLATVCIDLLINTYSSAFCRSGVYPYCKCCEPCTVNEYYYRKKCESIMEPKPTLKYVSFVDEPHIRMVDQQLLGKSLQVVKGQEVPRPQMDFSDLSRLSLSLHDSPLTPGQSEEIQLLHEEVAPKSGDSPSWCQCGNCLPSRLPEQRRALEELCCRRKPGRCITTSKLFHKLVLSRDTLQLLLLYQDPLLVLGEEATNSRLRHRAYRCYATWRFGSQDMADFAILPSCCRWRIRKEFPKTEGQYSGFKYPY", "test": "TEVC dose response of ATP at mP2X7R in Xenopus oocytes", "format": "cell-based", "procedure": "(§1) Defolliculated Xenopus laevis oocytes were purchased from Ecocyte Bioscience and kept in Modified Barth’s Solution (88 mM NaCl, 1 mM KCl, 0.82 mM MgSO4, 0.33 mM Ca(NO3)2·4H2O, 0.41 mM CaCl2·2H2O, 2.4 mM NaHCO3, 5 mM HEPES) supplemented with amikacin 250 mg/L and gentamycin 150 mg/L. Oocytes were then injected with 50 nL of either full-length wild-type hP2X7R (40 ng/μL), mP2X7R (20 ng/μL), or rP2X7R (20 ng/μL) mRNA made from linearized pcDNA 3.1x according to the protocol provided in the mMessage mMachine kit (Invitrogen). Injected oocytes were allowed to express for ~20 h before recording was performed.\n(§2) Data acquisition was performed using an Oocyte Clamp OC-725C amplifier and pClamp 8.2 software. Buffers were applied using a gravity-fed RSC-200 Rapid Solution Changer, flowing at ~5 mL/min. All experiments use Sutter filamented glass 10 cm in length with an inner diameter of 0.69 mm and an outer diameter of 1.2 mm to impale oocytes and clamp the holding voltage at −60 mV. Experiments were recorded in buffer containing 100 mM NaCl, 2.5 mM KCl, 0.1 mM EDTA, 0.1 mM flufenamic acid, and 5 mM HEPES at pH 7.4.\n(§3) This value is then averaged amongst each singular condition and reported as the mean ± SD."}, "hP2X7R [1]": {"biological_target": "T2, hP2X7R (Homo sapiens, UniProt Q99572)", "T2 sequence (Q99572 1-595)": "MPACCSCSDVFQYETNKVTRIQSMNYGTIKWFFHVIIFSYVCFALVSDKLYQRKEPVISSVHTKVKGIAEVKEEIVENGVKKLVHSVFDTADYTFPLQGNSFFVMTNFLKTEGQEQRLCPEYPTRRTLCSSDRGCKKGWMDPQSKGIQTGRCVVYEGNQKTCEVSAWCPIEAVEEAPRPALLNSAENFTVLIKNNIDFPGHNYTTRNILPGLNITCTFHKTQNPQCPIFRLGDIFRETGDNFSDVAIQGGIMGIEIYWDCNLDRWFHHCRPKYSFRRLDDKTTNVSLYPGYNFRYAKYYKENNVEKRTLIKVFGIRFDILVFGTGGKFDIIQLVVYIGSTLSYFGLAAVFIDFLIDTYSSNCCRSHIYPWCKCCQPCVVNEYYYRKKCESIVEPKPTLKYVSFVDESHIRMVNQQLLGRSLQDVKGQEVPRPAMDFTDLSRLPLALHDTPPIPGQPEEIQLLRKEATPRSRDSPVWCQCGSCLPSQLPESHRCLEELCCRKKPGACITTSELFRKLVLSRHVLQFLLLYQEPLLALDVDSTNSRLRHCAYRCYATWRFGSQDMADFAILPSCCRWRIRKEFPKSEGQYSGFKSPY", "test": "Bio-layer interferometry (BLI), ATP binding to biotinylated hP2X7R", "procedure": "Briefly, BLI experiments were performed at 30 °C in 384-well tilted-bottom plates (Sartorius) with orbital shaking at 1000 r.p.m. on a ForteBio Octet RED384 instrument (ForteBio Data Acquisition software 11.0) using pre-equilibrated (0.22 μm filtered PBS at pH 7.4 and 0.5 mM DDM from Anatrace) SA biosensor tips (Sartorious) loaded with 50 μg/mL of biotinylated hP2X7R ligand or biocytin (Sigma-Aldrich) control for 1800 s[34],[35]. The loaded SA sensors were blocked with 100 μg/mL of biocytin for 150 s and then washed with running buffer for 60 s. […] After data collection, rate constants for association and dissociation were determined using ForteBio Data Analysis HT 11.0 evaluation software. To maximize signal between the large ligand and small analyte, the raw data were double reference subtracted[34],[35]. For each interaction pair, the association rate constant (ka) and the dissociation rate constant (kd) were calculated with an average of three independent assays with at least four different concentrations that were globally fit to a 1:1 Langmuir binding model. The equilibrium dissociation constant (KD) was calculated as the ratio of kd to ka. The KD, ka, and kd values are reported as the average ± the standard deviation of three replicate datasets for each analyte, with each dataset using at least four independent traces. The analyzed data were exported and plotted in GraphPad Prism 9.0."}, "rP2X7R [2]": {"biological_target": "rP2X7R", "set-up": "method as in PMID 39107314", "details": "BLI; read-out: equilibrium dissociation constant (KD), rP2X7R; cited from earlier work"}, "hP2X7R [3]": {"biological_target": "T2, hP2X7R", "test": "TEVC dose response of ATP at hP2X7R in Xenopus oocytes", "format": "cell-based", "set-up": "expressed in transfected cells; host or cells: Xenopus laevis oocytes injected with mRNA made from pcDNA 3.1x", "procedure": "as §1, §2, §3"}, "rP2X7R [4]": {"biological_target": "T3, rP2X7R (Rattus norvegicus, UniProt Q64663)", "T3 sequence (Q64663 1-595)": "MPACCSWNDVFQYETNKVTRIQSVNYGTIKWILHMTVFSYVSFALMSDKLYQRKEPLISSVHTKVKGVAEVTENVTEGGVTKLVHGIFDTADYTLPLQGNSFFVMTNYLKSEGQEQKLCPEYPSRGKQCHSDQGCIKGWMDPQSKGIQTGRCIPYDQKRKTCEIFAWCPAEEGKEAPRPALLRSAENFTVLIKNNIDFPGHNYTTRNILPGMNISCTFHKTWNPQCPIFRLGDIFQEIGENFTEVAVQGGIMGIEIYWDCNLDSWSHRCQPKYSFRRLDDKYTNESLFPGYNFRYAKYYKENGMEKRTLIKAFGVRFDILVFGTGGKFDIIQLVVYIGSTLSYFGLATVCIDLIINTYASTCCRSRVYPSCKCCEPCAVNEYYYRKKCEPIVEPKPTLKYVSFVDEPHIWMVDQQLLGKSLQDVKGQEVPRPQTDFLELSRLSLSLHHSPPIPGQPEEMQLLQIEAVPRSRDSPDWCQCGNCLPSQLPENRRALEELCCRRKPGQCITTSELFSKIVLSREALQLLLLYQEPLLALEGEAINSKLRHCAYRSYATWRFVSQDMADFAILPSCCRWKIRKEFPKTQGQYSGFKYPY", "test": "TEVC dose response of ATP at rP2X7R in Xenopus oocytes", "format": "cell-based", "set-up": "expressed in transfected cells; host or cells: Xenopus laevis oocytes injected with mRNA made from pcDNA 3.1x", "procedure": "as §1, §2, §3"}, "[5]": {"set-up": "method as in PMID 39139642", "details": "cited from earlier work"}, "P2X7R": {"test_system": "P2X7R", "details": "cited from earlier work"}, "[6]": {"details": "[ATP] 3000 μM, single experiments"}},
  "note": "Several values for one entry are separate records, joined by “and”; a condition that tells them apart may be missing. Equal values may be shown once.",
  "data": [
    {"compound": "Nc1ncnc2c1ncn2[C@@H]1O[C@H](COP(=O)(O)OP(=O)(O)OP(=O)(O)O)[C@@H](O)[C@H]1O", "note": "[ATP]", "values": [
      {"measurement": "Normalized response, mP2X7R", "setting": "mP2X7R; [ATP] 1.2 μM", "value": "0.02 and 0.01"},
      {"measurement": "Normalized response, mP2X7R", "setting": "mP2X7R; [ATP] 3.7 μM", "value": "0.017 and 0.013 and 0.009"},
      {"measurement": "Normalized response, mP2X7R", "setting": "mP2X7R; [ATP] 37 μM", "value": "0.27 and 0.22 and 0.15"},
      {"measurement": "Normalized response, mP2X7R", "setting": "mP2X7R; [ATP] 1000 μM", "value": "1 and 0.88"},
      {"measurement": "Normalized response, mP2X7R", "setting": "mP2X7R; [6]", "value": "1 and 0.9"},
      {"measurement": "EC50", "setting": "mP2X7R; read-out: EC50 for ATP, mP2X7R, TEVC, absence of divalent cations, mean ± SD, triplicate", "value": "70 ± 17", "unit": "µM"},
      {"measurement": "rate constant for association (ka)", "setting": "hP2X7R [1]; BLI, 1:1 Langmuir model", "value": "7.4 ± 1.3 × 10^4 M^−1 s^−1"},
      {"measurement": "rate constant for dissociation (kd)", "setting": "hP2X7R [1]; BLI, 1:1 Langmuir model", "value": "4.8 ± 1.2 × 10^−2 s^−1"},
      {"measurement": "Kd", "setting": "hP2X7R [1]; BLI, mean ± SD, triplicate, read-out: equilibrium dissociation constant (KD), hP2X7R", "value": "0.65 ± 0.12", "unit": "µM"},
      {"measurement": "KD higher than at the rP2X7R", "setting": "hP2X7R [1]; hP2X7R vs rP2X7R", "value": "~ 20%"},
      {"measurement": "ka slower than for ATP binding to the rP2X7R", "setting": "hP2X7R [1]; hP2X7R vs rP2X7R", "value": "~ 27%"},
      {"measurement": "kd slower than for ATP binding to the rP2X7R", "setting": "hP2X7R [1]; hP2X7R vs rP2X7R", "value": "~ 6%"},
      {"measurement": "Kd", "setting": "rP2X7R [2]", "value": "0.54 ± 0.23", "unit": "µM"},
      {"measurement": "Normalized response, hP2X7R", "setting": "hP2X7R [3]; [ATP] 37 μM", "value": "0.2 and 0.1456"},
      {"measurement": "Normalized response, hP2X7R", "setting": "hP2X7R [3]; [ATP] 1000 μM", "value": "1 and 1.01 and 0.9474"},
      {"measurement": "Normalized response, hP2X7R", "setting": "hP2X7R [3]; [6]", "value": "1.044 and 1.035 and 1.029"},
      {"measurement": "EC50", "setting": "hP2X7R [3]; read-out: EC50 for ATP, hP2X7R, TEVC, absence of divalent cations, mean ± SD, triplicate", "value": "89 ± 8.3", "unit": "µM"},
      {"measurement": "Normalized response, rP2X7R", "setting": "rP2X7R [4]; [ATP] 2 μM", "value": 0},
      {"measurement": "Normalized response, rP2X7R", "setting": "rP2X7R [4]; [ATP] 37 μM", "value": "0.41 and 0.5375 and 0.6343"},
      {"measurement": "Normalized response, rP2X7R", "setting": "rP2X7R [4]; [ATP] 1000 μM", "value": "0.98 and 0.9571 and 0.9954"},
      {"measurement": "Normalized response, rP2X7R", "setting": "rP2X7R [4]; [6]", "value": "1 and 0.9691"},
      {"measurement": "EC50", "setting": "rP2X7R [4]; read-out: EC50 for ATP, rP2X7R, TEVC, absence of divalent cations, mean ± SD, triplicate", "value": "34 ± 8.4", "unit": "µM"}
    ]},
    {"compound": "O=C(NCC12CC3CC(CC(C3)C1)C2)c1cc(CCCNCCCO)ccc1Cl", "note": "[AZD9056]", "values": [
      {"measurement": "efficacy in phase II trials for rheumatoid arthritis", "setting": "[5]", "value": "limited efficacy"}
    ]},
    {"compound": "Clc1cccc(-c2nnnn2Cc2cccnc2)c1Cl", "note": "[Compound A438079]", "values": [
      {"measurement": "inhibitory activity across human, mouse and rat orthologs", "setting": "P2X7R", "value": "equal inhibitory activity across all three orthologs"}
    ]}
  ]
}
